Assays:
PglJ Cc 33237 [1] = details: 20 μM Und-PP-diNAcBac-GalNAc; 0.1 nM enzyme; 5 mM MgCl2; 0.1% Triton X-100; 50 mM HEPES pH 7.5; 100 mM NaCl
PglJ Cc 13826 [2] = details: 20 μM Und-PP-diNAcBac-GalNAc; 0.1 nM enzyme; 5 mM MgCl2; 0.1% Triton X-100; 50 mM HEPES pH 7.5; 100 mM NaCl
PglJ Cj 11168 = PglJ Cj 11168 (Campylobacter jejuni, UniProt Q0P9C7); test: UDP-Glo glycosyltransferase assay, UDP-sugar screen; type: biochemical; details: 10 nM enzyme; 25 μM UDP-sugar; 20 μM Und-PP-diNAcBac-GalNAc; 5 mM MgCl2; pH 7.5
PglJ Cc 33237 [3] = details: 25 μM UDP-sugar; 20 μM Und-PP-diNAcBac-GalNAc; 5 mM MgCl2; pH 7.5; varying enzyme
PglJ Cc 13826 [4] = details: 1 mM ligand; 10 mM HEPES pH 7.5; 150 mM NaCl; 5% glycerol; 2 mM DTT; 0.03% DDM
PglJ Cc 33237 [5] = details: 1 mM ligand; 10 mM HEPES pH 7.5; 150 mM NaCl; 5% glycerol; 2 mM DTT; 0.03% DDM

Work on CC(=O)N[C@H]1[C@@H](OP(=O)(O)OP(=O)(O)OC[C@H]2O[C@@H](n3ccc(=O)[nH]c3=O)[C@H](O)[C@@H]2O)O[C@H](C(=O)O)[C@H](O)[C@@H]1O [UDP-GalNAcA] yielded a Km (PglJ Cc 33237 [1]) of 7.4 ± 2.5 µM and a Km (PglJ Cc 13826 [2]) of 3.8 ± 1.9 µM.

With CC(=O)N[C@H]1[C@@H](OP(=O)(O)OP(=O)(O)OC[C@H]2O[C@@H](n3ccc(=O)[nH]c3=O)[C@H](O)[C@@H]2O)O[C@H](CO)[C@H](O)[C@@H]1O [UDP-GalNAc] the “UDP-Glo glycosyltransferase assay, UDP-sugar screen” value (PglJ Cj 11168) was “At the same concentration, the PglJ from C. jejuni preferred UDP-GalNAc” and the “UDP-Glo glycosyltransferase assay, UDP-sugar screen” value (PglJ Cc 33237 [3]) was “this variant now transfers GalNAc from UDP-GalNAc onto the growing Und-PP-glycan”.

For CC(=O)N[C@H]1[C@@H](OP(=O)(O)OP(=O)(O)OC[C@H]2O[C@@H](n3ccc(=O)[nH]c3=O)[C@H](O)[C@@H]2O)O[C@H](C(=O)O)[C@@H](O)[C@@H]1O [UDP-GlcNAcA], the dTm (PglJ Cc 13826 [4]) was “(UDP-GalNAcA and UDP-GlcNAcA) stabilized the PglJ enzymes from both strains of C. concisus studied” and the dTm (PglJ Cc 33237 [5]) was “(UDP-GalNAcA and UDP-GlcNAcA) stabilized the PglJ enzymes from both strains of C. concisus studied”.

O=c1ccn([C@@H]2O[C@H](COP(=O)(O)OP(=O)(O)O)[C@@H](O)[C@H]2O)c(=O)[nH]1 [UDP] was tested, and the dTm (PglJ Cc 13826 [4]) was “Significant stabilization was observed with UDP, the nucleotide product of the glycosyltransferase reaction” and the dTm (PglJ Cc 33237 [5]) was “Significant stabilization was observed with UDP, the nucleotide product of the glycosyltransferase reaction”.

From publication PMC10873021 (Biochemistry, 2023)
